Results published in patent US20100137375A1, “Emulsifiable Concentrate” (BASF SE, priority 2005, published 2010).

How the values were obtained:
[1] = test system: Colorado potato beetle (Leptinotarsa decemlineata); test: Field trial against Colorado potato beetle in potatoes; format: in vivo; conditions: 60 g AI/HA
Protocol: Performance of EC formulations according to the invention against the Colorado potato beetle (Leptinotarsa decemlineata) in potatoes
The trial was arranged in a randomized complete block design with three replications. Plots were 5 m long and one row (1 m) wide. Applications were conducted with a fournozzle row crop boom delivering side and overhead coverage, at 3-bar pressure and 400 l/ha. Numbers of larvae (L1/2) (L3/4) were recorded per plot at 2, 5 and 14 DAT (day after treatment) and a defoliation assessment was made at 14 DAT. Colorado potato beetle pressure was high resulting in complete defoliation in the controls at 19 DAT.

[2] = test system: Southern armyworm (Spodoptera eridania), third instar; test: Lima bean leaf-dip test against Southern armyworm; format: in vivo
Protocol: Performance of EC formulations according to the invention against Southern armyworm (Spodoptera eridania), third instar
A stock solution of metaflumizone formulation is diluted into a container of water. Lima bean leaves are dipped into treatment solutions and allowed to air-dry. A single treated leaf is placed topside-up onto water-moistened filter paper in multiple plastic petri dishes. Seven larvae are placed onto each leaf and then each arena is sealed with petri dish covers. Each treatment replicated 4-fold (1 replicate=1 petri dish arena). Following treatment application, infested plants are held in the laboratory under fluorescent lighting and constant 26° C. Larval mortality/morbidity (i.e., number dead/number tested) is assessed at 5 days post-treatment. The mortality levels based on number of live larve.

[3] = larval mortality at 5 days post-treatment, Log Dose-Probit analysis

## N#Cc1ccc(CC(=NNC(=O)Nc2ccc(OC(F)(F)F)cc2)c2cccc(C(F)(F)F)c2)cc1 [metaflumizone]
[1]; 2 DAT
  Mean # of L1/L2 per plot: .3b
  Mean # of L3/L4 per plot: .3b
[1]; 5 DAT
  Mean # of L1/L2 per plot: 4b
  Mean # of L3/L4 per plot: 2b
[1]; 14 DAT
  % Defoliation: 18a %
  Mean # of L1/L2 per plot: .3a
  Mean # of L3/L4 per plot: 7ab
[2]; [3]
  LC50: 1.50 ppm
  LC90: 7.70 ppm
[2]; relative to metaflumizone dispersed in water (standard control)
  Biological Enhancement: 1x (standard control)
